Data published in US20250006334A1, “SIROLIMUS PHARMACOKINETICS GUIDED AND MODEL INFORMED PRECISION DOSING” (Children's Hospital Medical Center, priority 2023, published 2025).

Experiment: Observed sirolimus trough blood concentration in infant patients under model-informed precision dosing
Assay type: in vivo, human
Source text: After therapy has been initiated using the initial dose, data may be collected 103 on the impact of the therapy. This may be done, for example, by, 7-14 days after the start of therapy, taking a pre-dose trough blood sample which could then be sent to a lab to determine a sirolimus blood concentration. Alternatively, in some cases additional samples may be taken. For example, in a case where an abbreviated area under the curve PK consult is ordered, data collection 103 may include taking three whole blood samples: a first sample taken 15-30 minutes before a dose, a second sample taken 45-75 minutes after the dose, and a third sample taken 150-210 minutes after the dose. A laboratory could then process the sample(s), and the sirolimus concentration could be reported back. For example, in a case where an application for recommending individualized sirolimus doses was implemented based on this disclosure, the lab could report the results back through an API exposed by a web portal supported by the application, or could send the results back through an external communication channel (e.g., secure email) to the user of the application, and that user could then input the results to the application himself or herself.
However the model refinement 105 is performed, once a refined model is available, it may be applied 106 to determine a personalized dose for the patient. […]

- observed sirolimus trough concentration at six months of age (FIG. 2, infant who started sirolimus at 2 months of age, doses predicted from weight, PMA and concentration measured at three months, target range 10-12 ng/mL): 9.3 ng/mL
- observed sirolimus trough concentration at 6 months (FIG. 3, prediction from age 4 months to 6 months based on concentration at 4 months, weight and PMA, target trough range 10-12 ng/mL): 10.5 ng/mL
SMILES: CO[C@H]1C[C@@H]2CC[C@@H](C)[C@@](O)(O2)C(=O)C(=O)N2CCCC[C@H]2C(=O)O[C@H]([C@H](C)C[C@@H]2CC[C@@H](O)[C@H](OC)C2)CC(=O)[C@H](C)/C=C(\C)[C@@H](O)[C@@H](OC)C(=O)[C@H](C)C[C@H](C)/C=C/C=C/C=C/1C [sirolimus]
